Results from the supplement of paper PMC10307832.

What was measured:
Assay in all cases: relative viability (nuclei count vs DMSO), 5 days (fraction); higher = more cells survive
VE-821 + Dasatinib = compound: CS(=O)(=O)c1ccc(-c2cnc(N)c(C(=O)Nc3ccccc3)n2)cc1 [VE-821] + Cc1nc(Nc2ncc(C(=O)Nc3c(C)cccc3Cl)s2)cc(N2CCN(CCO)CC2)n1 [Dasatinib] (partner 0.075 µM)
Summary of the method: (§1)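 After 5 days of treatment, lung cancer cells in 1536-well plates were fixed and stained in a single step (final 0.05% Triton X-100, 1% formaldehyde, 1 ug/ml Hoechst) and their nuclei counted on 4× images. Treatment had been applied by pin tool the day after seeding as one drug alone or as a fixed anchor-drug dose with five library-drug doses (not always all listed) in √10 steps. Relative viability is the nuclei count of treated wells divided by that of vehicle wells, and values are medians of duplicate plates.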

Vismodegib + Palbociclib = compound: CS(=O)(=O)c1ccc(C(=O)Nc2ccc(Cl)c(-c3ccccn3)c2)c(Cl)c1 [Vismodegib] + CC(=O)c1c(C)c2cnc(Nc3ccc(N4CCNCC4)cn3)nc2n(C2CCCC2)c1=O [Palbociclib] (partner 0.5 µM)
Summary of the method: as §1

Vismodegib + Navitoclax = compound: CS(=O)(=O)c1ccc(C(=O)Nc2ccc(Cl)c(-c3ccccn3)c2)c(Cl)c1 [Vismodegib] + CC1(C)CCC(c2ccc(Cl)cc2)=C(CN2CCN(c3ccc(C(=O)NS(=O)(=O)c4ccc(N[C@H](CCN5CCOCC5)CSc5ccccc5)c(S(=O)(=O)C(F)(F)F)c4)cc3)CC2)C1 [Navitoclax] (partner 0.5 µM)
Summary of the method: as §1

Ruxolitinib + AZD7762 = compound: N#CC[C@H](C1CCCC1)n1cc(-c2ncnc3[nH]ccc23)cn1 [Ruxolitinib] + NC(=O)Nc1cc(-c2cccc(F)c2)sc1C(=O)N[C@H]1CCCNC1 [AZD7762] (partner 0.2 µM)
Summary of the method: as §1

Cell Line | relative viability (VE-821 + Dasatinib; first compound 0.08 µM) | relative viability (VE-821 + Dasatinib; first compound 0.253 µM) | relative viability (VE-821 + Dasatinib; first compound 0.8 µM) | relative viability (VE-821 + Dasatinib; first compound 2.53 µM) | relative viability (VE-821 + Dasatinib; first compound 8 µM) | relative viability (Vismodegib + Palbociclib; first compound 0.08 µM) | relative viability (Vismodegib + Palbociclib; first compound 0.253 µM) | relative viability (Vismodegib + Palbociclib; first compound 0.8 µM) | relative viability (Vismodegib + Palbociclib; first compound 2.53 µM) | relative viability (Vismodegib + Palbociclib; first compound 8 µM) | relative viability (Vismodegib + Navitoclax; first compound 0.08 µM) | relative viability (Vismodegib + Navitoclax; first compound 0.253 µM) | relative viability (Vismodegib + Navitoclax; first compound 0.8 µM) | relative viability (Vismodegib + Navitoclax; first compound 2.53 µM) | relative viability (Vismodegib + Navitoclax; first compound 8 µM) | relative viability (Ruxolitinib + AZD7762; first compound 0.08 µM) | relative viability (Ruxolitinib + AZD7762; first compound 0.253 µM) | relative viability (Ruxolitinib + AZD7762; first compound 0.8 µM) | relative viability (Ruxolitinib + AZD7762; first compound 2.53 µM) | relative viability (Ruxolitinib + AZD7762; first compound 8 µM)
LC-2-ad | 0.856 | 0.607 | 0.679 | 0.586 | 0.404 | 0.477 | 0.501 | 0.482 | 0.479 | 0.544 | 0.573 | 0.447 | 0.422 | 0.522 | 0.553 | 0.875 | 0.865 | 0.821 | 0.792 | 0.693
LCLC-97TM1 | 1.1 | 0.763 | 0.756 | 0.838 | 0.639 | 0.202 | 0.208 | 0.263 | 0.203 | 0.213 | – | – | 0.443 | – | 0.63 | 0.401 | 0.267 | 0.317 | 0.287 | 0.53
LK-2 | 0.269 | 0.26 | 0.273 | 0.352 | 0.38 | 0.72 | 0.708 | 0.607 | 0.83 | 0.745 | 0.818 | 0.734 | 0.797 | 0.859 | 0.784 | 0.4 | 0.489 | 0.815 | 0.481 | 0.648
LOU-NH91 | 0.571 | 0.489 | 0.567 | 0.55 | 0.584 | 0.536 | 0.582 | 0.496 | 0.523 | 0.553 | 0.618 | 0.686 | 0.687 | 0.672 | 0.747 | 0.757 | 0.664 | 0.797 | 0.74 | 0.73
LU99A | 0.552 | 0.562 | 0.551 | 0.571 | 0.303 | 0.387 | 0.4 | 0.393 | 0.409 | 0.433 | 0.722 | 0.794 | 0.79 | 0.881 | 0.71 | 0.336 | 0.402 | 0.394 | 0.406 | 0.477
LXF-289 | 0.235 | 0.247 | 0.195 | 0.223 | 0.155 | 0.582 | 0.605 | 0.595 | 0.594 | 0.6 | 0.919 | 0.931 | 0.935 | 0.917 | 0.917 | 1.06 | 1.15 | 1.11 | 1.04 | 1
NCI-H23 | 0.881 | 0.746 | 0.78 | 0.603 | 0.283 | 0.505 | 0.439 | 0.544 | 0.412 | 0.522 | 0.89 | 0.735 | 0.926 | 0.811 | 0.86 | 0.456 | 0.303 | 0.279 | 0.206 | 0.277
NCI-H322M | 0.255 | 0.264 | 0.248 | 0.301 | 0.268 | 0.455 | 0.465 | 0.459 | 0.506 | 0.509 | 1.19 | 1.3 | 1.14 | 1.23 | 1.07 | 0.524 | 0.508 | 0.517 | 0.685 | 0.776
